Experimental data reported in US8519128B2, “Pyripyropene derivatives having an ACAT2-inhibiting activity” (The Kitasato Institute, priority 2007, dated 2013).
Read-outs that look alike come from different tables or passages of the source.

Target: T1, ACAT 2 (Mus musculus, UniProt O88908)
T1 construct: The source of ACAT 2 enzyme used was a membrane fraction derived from mouse liver microsome; from tissue; host or cells: mouse liver (microsome fraction)
T1 sequence (O88908 1-525): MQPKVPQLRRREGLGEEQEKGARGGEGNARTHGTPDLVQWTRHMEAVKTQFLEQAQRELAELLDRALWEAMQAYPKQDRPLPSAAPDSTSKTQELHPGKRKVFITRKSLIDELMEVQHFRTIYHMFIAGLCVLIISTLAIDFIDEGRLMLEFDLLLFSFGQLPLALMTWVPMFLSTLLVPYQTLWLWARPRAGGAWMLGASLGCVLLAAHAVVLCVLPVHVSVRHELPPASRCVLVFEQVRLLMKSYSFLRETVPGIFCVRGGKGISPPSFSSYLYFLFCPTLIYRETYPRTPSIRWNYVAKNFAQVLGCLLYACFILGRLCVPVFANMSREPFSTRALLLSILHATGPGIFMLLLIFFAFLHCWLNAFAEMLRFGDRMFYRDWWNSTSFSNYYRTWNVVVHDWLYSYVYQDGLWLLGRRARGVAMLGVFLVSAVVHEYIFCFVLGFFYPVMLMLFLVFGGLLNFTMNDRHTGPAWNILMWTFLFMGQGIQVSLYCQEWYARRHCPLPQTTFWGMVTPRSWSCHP
Assay: ACAT-inhibiting activity, mouse liver microsome membrane fraction, [14C]oleoyl-CoA
Assay type: biochemical
Conditions: for Specific activity: (inhibitory activity of test compound)/(inhibitory activity of pyripyropene A): relative to pyripyropene A
In short: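 Enzyme source: mouse liver microsomal membrane fraction (100000×g pellet) at 5 mg/ml protein in 50 mM Tris-HCl pH 7.8, 1 mM EDTA, 1 mM PMSF; substrate [14C]oleoyl-CoA. Chloroform-extracted lipids resolved by silica TLC in hexane/diethyl ether/acetic acid (70:30:1).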

[1] = mouse liver microsome, 5 minutes at 37° C.

SMILES	IC50 [1] [nM]	Specific activity: (inhibitory activity of test compound)/(inhibitory activity of pyripyropene A)	IC50 [nM]
CC(=O)OCC1(C)C2C[C@@H](N=[N+]=[N-])[C@@]3(C)Oc4cc(-c5cccnc5)oc(=O)c4[C@H](O)C3[C@@]2(C)CC[C@@H]1OC(C)=O (stereo partly drawn) [PRD 062, 7-(R)-azide-7-(S)-deacetylpyripyropene A]	100 to 1000	+ (5 > specific activity > 1)	
CC(=O)OCC1(C)C2C[C@@H](I)[C@@]3(C)Oc4cc(-c5cccnc5)oc(=O)c4[C@H](O)C3[C@@]2(C)CC[C@@H]1OC(C)=O (stereo partly drawn) [PRD 064, 7-(R)-iodo-7-(S)-deacetylpyripyropene A]	100 to 1000	+ (5 > specific activity > 1)	
CC(=O)OCC1(C)C2C[C@@H](Cl)[C@@]3(C)Oc4cc(-c5cccnc5)oc(=O)c4[C@H](O)C3[C@@]2(C)CC[C@@H]1OC(C)=O (stereo partly drawn) [PRD 065, 7-(R)-chloro-7-(S)-deacetylpyripyropene A]		+ (5 > specific activity > 1)	100 to 1000
COc1ccc(-n2nnnc2S[C@@H]2CC3C(C)(COC(C)=O)[C@@H](OC(C)=O)CC[C@]3(C)C3[C@@H](O)c4c(cc(-c5cccnc5)oc4=O)O[C@@]32C)cc1 (stereo partly drawn) [PRD 066, 7-(R)-{sulfinyl-5-(p-methoxyphenyl)tetrazol-1-yl}-7-(S)-deacetylpyripyropene A]	100 to 1000	+ (5 > specific activity > 1)	
CC(=O)OCC1(C)C2C[C@H](OC(=O)C3CCCC3)[C@@]3(C)Oc4cc(-c5cccnc5)oc(=O)c4[C@H](O)C3[C@@]2(C)CC[C@@H]1OC(C)=O (stereo partly shown) [PRD 075, 7-O-cyclopentanecarboxyl-7-deacetylpyripyropene A]		++ (10 > specific activity > 5)	10 to 100
CC(=O)OCC1(C)C2C[C@H](OC(=O)Cn3cnnn3)[C@@]3(C)Oc4cc(-c5cccnc5)oc(=O)c4[C@H](O)C3[C@@]2(C)CC[C@@H]1OC(C)=O (stereo partly shown) [PRD 092, 7-O-2-(1H-tetrazol-1-yl)acetyl-7-deacetylpyripyropene A]		+ (5 > specific activity > 1)	100 to 1000

Further lines, with some results ahead:

IC50 [1] [nM]	Specific activity: (inhibitory activity of test compound)/(inhibitory activity of pyripyropene A)	SMILES	IC50 [nM]
10 to 100	+++ (50 > specific activity > 10)	COc1ccc(CCC(=O)O[C@H]2CC3C(C)(COC(C)=O)[C@@H](OC(C)=O)CC[C@]3(C)C3[C@@H](O)c4c(cc(-c5cccnc5)oc4=O)O[C@@]32C)cc1 (stereo partly shown) [PRD 084, 7-O-3-(4-methoxyphenyl)propionyl-7-deacetylpyripyropene A]	
10 to 100	+ (5 > specific activity > 1)	CC(=O)OCC1(C)C2C[C@H](OC(=O)C3CCC(C)CC3)[C@@]3(C)Oc4cc(-c5cccnc5)oc(=O)c4[C@H](O)C3[C@@]2(C)CC[C@@H]1OC(C)=O (stereo partly drawn) [PRD 085, 7-O-4-trans-methylcyclohexanecarboxyl-7-deacetylpyripyropene A]	
100 to 1000	+ (5 > specific activity > 1)	COc1ccc(CC(=O)O[C@H]2CC3C(C)(COC(C)=O)[C@@H](OC(C)=O)CC[C@]3(C)C3[C@@H](O)c4c(cc(-c5cccnc5)oc4=O)O[C@@]32C)cc1 (stereo partly shown) [PRD 087, 7-O-4-methoxyphenylacetyl-7-deacetylpyripyropene A]	
100 to 1000	+ (5 > specific activity > 1)	CC(=O)OCC1(C)C2C[C@H](OC(=O)Cn3cc(C)c(=O)[nH]c3=O)[C@@]3(C)Oc4cc(-c5cccnc5)oc(=O)c4[C@H](O)C3[C@@]2(C)CC[C@@H]1OC(C)=O (stereo partly shown) [PRD 090, 7-O-1-thymineacetyl-7-deacetylpyripyropene A]	
100 to 1000	+ (5 > specific activity > 1)	CC(=O)OCC1(C)C2C[C@H](OC(=O)CCCCO)[C@@]3(C)Oc4cc(-c5cccnc5)oc(=O)c4[C@H](O)C3[C@@]2(C)CC[C@@H]1OC(C)=O (stereo partly shown) [PRD 093, 7-O-5-hydroxypentanoyl-7-deacetylpyripyropene A]	
